Measurements published in article PMC6253875, “Synthesis and Evaluation of Non-peptidic Cysteine Protease Inhibitors of P. falciparum Derived from Etacrynic Acid” (Molecules, 2008).
Read-outs that look alike come from different tables or passages of the source.

Columns and labels:
[1] = biological target: T1, falcipain-2 (Plasmodium falciparum, UniProt Q8I6U4); experiment: Inhibition of recombinant falcipain-2, fluorometric microplate assay (Cbz-Phe-Arg-AMC); type: biochemical
T1 construct: made in house; host or cells: E. coli
T1 sequence (Q8I6U4 244-484): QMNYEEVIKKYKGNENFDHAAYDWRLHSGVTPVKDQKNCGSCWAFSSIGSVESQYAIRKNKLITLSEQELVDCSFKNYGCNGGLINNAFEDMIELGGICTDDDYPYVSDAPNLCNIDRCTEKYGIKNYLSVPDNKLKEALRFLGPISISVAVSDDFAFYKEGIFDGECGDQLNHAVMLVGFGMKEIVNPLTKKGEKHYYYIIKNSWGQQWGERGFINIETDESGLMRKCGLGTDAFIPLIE
Experimental: (§1) Recombinant falcipain-2 and falcipain-3 were produced as previously described. Inhibitory activities against recombinant falcipain-2 and falcipain-3 were evaluated in fluorometric microplate assays using the substrates Cbz-Phe-Arg-AMC and Cbz-Leu-Arg-AMC (AMC, 7-amino-4-methyl-coumarin). The cysteine protease inhibitor E-64 was used as a positive control. The solvent DMSO was used as negative control. […] The in vitro data for the etacrynic acid derivatives are compared to those of the well known drug chloroquine and to E-64.
(§2) Falcipain-2 and falcipain-3 were recombinantly expressed in E. coli and refolded to active enzyme as previously described.
(§3) IC50 values for inhibition of falcipain-2 and falcipain-3 were determined as described previously using the fluorogenic substrates Cbz-Phe-Arg-AMC and Cbz-Leu-Arg-AMC, respectively (AMC, 7-amino-4 methylcoumarin). As a positive control the well-known cysteine protease inhibitor E-64 [7, 25, 26] and as a negative control the solvent (DMSO) was used. Dose-dependent effects of compounds on parasite development (P. falciparum strain W2) were quantified by flow cytometry according to a previously published method. First, a screening with inhibitor concentrations of […] was performed and the percentage activity of infected red blood cells (RBCs) relative to the negative control was determined. […] Chloroquine and E-64 were used as positive controls, and the solvent DMSO was used as a negative control. For selected compounds assays with the P. falciparum strain 3D7 were performed using a fluorometric assay with Hoechst-33258 [28], or the microculture tetrazolium test measuring parasite lactate dehydrogenase activity. The parasites were cultivated in vitro as described previously. Compounds were screened at concentrations between 1 nM and 100 μM. Synchronized ring stages were plated in 96-well plates at a parasitemia of 1%, in the presence of the compounds (dissolved in DMSO). Incubation of parasites with DMSO alone at a concentration of 0.5% v/v was used as a negative control. IC50 values were calculated by non-linear regression analyses using the programs GaphPad® Prism 4 and GraFit® [31, 32].

[2] = test system: P. falciparum strain W2; experiment: Antiplasmodial activity in vitro, parasite development quantified by flow cytometry; type: cell-based, Plasmodium falciparum; details: W2 strain (CQ-resistant), ni = no inhibition; for IC50: read-out: P. f. 3D7/W2, IC50
Experimental: as §3

[3] = biological target: T2, falcipain-3 (Plasmodium falciparum, UniProt Q8IIL0); experiment: Inhibition of recombinant falcipain-3, fluorometric microplate assay (Cbz-Leu-Arg-AMC); type: biochemical
T2 construct: made in house; host or cells: E. coli
T2 sequence (Q8IIL0 243-492): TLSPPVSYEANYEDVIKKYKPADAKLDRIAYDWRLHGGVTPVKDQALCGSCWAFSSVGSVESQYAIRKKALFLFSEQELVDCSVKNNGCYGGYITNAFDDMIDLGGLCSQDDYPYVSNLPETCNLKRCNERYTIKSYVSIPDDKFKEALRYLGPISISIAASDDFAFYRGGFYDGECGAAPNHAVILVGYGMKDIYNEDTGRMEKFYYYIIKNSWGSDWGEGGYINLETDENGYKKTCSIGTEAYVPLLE
Experimental: as §1, §2, §3

[4] = test system: P. falciparum strain 3D7; experiment: Antiplasmodial activity in vitro, Hoechst-33258 fluorometric assay or parasite lactate dehydrogenase test; type: cell-based; details: Plasmodium falciparum; 3D7 strain (CQ-sensitive); read-out: P. f. 3D7/W2, IC50
Experimental: as §1, §3

[5] = In vitro cytotoxicity assay; type: cell-based; details: human, 293T human kidney epithelium cells; 293T cells
Experimental: Recombinant falcipain-2 and falcipain-3 were produced as previously described. […] The cysteine protease inhibitor E-64 was used as a positive control. The solvent DMSO was used as negative control. […] For the experimental procedures, cells were detached from the flasks with a rubber policeman, washed twice with PBS (phosphate-buffer saline) containing 1 mL trypsin-EDTA (1 x), and suspended at 2 x 10^6 cells mL^-1 in complete medium. Inhibitor assays were carried out as described elsewhere except that the cell concentration used in this study was 2 x 10^4 mL^-1 well^-1 [33].

[6] = recombinant falcipain-2, values marked ^a: only one experiment, ni = no inhibition
[7] = Plasmodium falciparum, 3D7 / W2
[8] = recombinant falcipain-3, ni = no inhibition
[9] = recombinant falcipain-2, values marked ^a: only one experiment, ni = no inhibition, read-out: FP-2 IC50
[10] = recombinant falcipain-3, ni = no inhibition, read-out: FP-3 IC50

SMILES | IC50 [1, 9] [µM] | P. f. 3D7/W2, IC50 [2] | IC50 [3, 10] [µM] | also measured
CCCCNC(=O)COc1ccc(C(=O)CCC)cc1F [Compound 30, N-butyl-2-(4-butyryl-2-fluorophenoxy)acetamide] |  |  |  | FP-2 IC50 [1, 6]: ni
C=C(CC)C(=O)c1ccc(OCC(=O)NC(C(=O)OC)C(C)CC)c(F)c1 (centres unmarked) [Compound 7, Methyl-2-(2-(2-fluoro-4-(2-methylenebutanoyl)phenoxy)acetamido)-3-methylpentanoate] |  |  |  | FP-2 IC50 [1, 6]: ni
C=C(CC)C(=O)c1ccc(OCC(=O)NC(C)(C)C(N)=O)c(Cl)c1Cl [Compound 14] | 318 ± 14 |  |  | IC50 [2, 7]: 29.3 ± 3.4 µM; FP-3 IC50 [3, 8]: ni
C=C(CC)C(=O)c1ccc(OCC(=O)OCC)c(Cl)c1Cl [Compound 9] | 60.6 ± 4.2 | ni^c | 163 ± 5.6 | 
C=C(CC)C(=O)c1ccc(OCC(=O)O)c(F)c1 [Compound 4, 2-(2-fluoro-4-(2-methylenebutanoyl)phenoxy)acetic acid] |  |  |  | IC50 [4]: 79.8 ± 6 µM
C=C(CC)C(=O)c1ccc(OCC(=O)NC(C)(C)C)c(F)c1 [Compound 5, N-tert-butyl-2-(2-fluoro-4-(2-methylenebutanoyl)phenoxy)acetamide] | 80 ± 5 |  |  | IC50 [4]: 205 ± 9 µM
C=C(CC)C(=O)c1ccc(OCC(=O)NCC(=O)N[C@@H](C)C(N)=O)c(Cl)c1Cl [Compound 15] | 212 ± 17 | nic |  | FP-3 IC50 [3, 8]: ni
C=C(CC)C(=O)c1ccc(OCC(=O)OCC)c(Cl)c1 [Compound 1] | 498 ± 8 | ni^c | 346 ± 14 | 
C=C(CC)C(=O)c1ccc(OCC(=O)OC(C)(C)C)c(F)c1 [Compound 3, Tert-butyl 2-(2-fluoro-4-(2-methylenebutanoyl)phenoxy)acetate] |  |  |  | FP-2 IC50 [1, 6]: ni; IC50 [4]: 142 ± 5 µM
CCCC(=O)c1ccc(OCC(=O)NC(C)(C)C)c(Cl)c1Cl [Compound 26, N-tert-butyl-2-(4-butyryl-2,3-dichloro-phenoxy)-acetamide] | 484 | ni^c |  | FP-3 IC50 [3, 8]: ni
C=C(CC)C(=O)c1ccc(OCC(=O)NCCCC)c(F)c1 [Compound 6, N-butyl-2-(2-fluoro-4-(2-methylenebutanoyl)phenoxy)acetamide] |  |  |  | FP-2 IC50 [1, 6]: ni; IC50 [4]: 141 ± 4 µM; melting point: 73 °C
C=C(CC)C(=O)c1ccc(OCC(=O)O)c(Cl)c1Cl [Compound 8, etacrynic acid] | 443 ± 17 | ni^c |  | FP-3 IC50 [3, 8]: ni
CCCCNC(=O)COc1ccc(C(=O)CCC)c(Cl)c1Cl [Compound 27, N-butyl-2-(4-butyryl-2,3-dichloro-phenoxy)-acetamide] | 713 | ni^c |  | FP-3 IC50 [3, 8]: ni
CCCC(=O)c1ccc(OCC(=O)NC(C)(C)CO)c(F)c1 [Compound 31, 2-(4-Butyryl-2-fluorophenoxy)-N-(1-hydroxy-2-methylpropan-2-yl)acetamide] |  |  |  | FP-2 IC50 [1, 6]: ni
C=C(CC)C(=O)c1ccc(OCC(=O)N[C@H](C)C(=O)OCc2ccccc2)c(Cl)c1Cl [Compound 12] | 165 ± 12 |  |  | 
CCCC(=O)c1ccc(OCC(=O)NC(C)(C)C)c(F)c1 [Compound 28, N-tert-butyl-2-(4-butyryl-2-fluorophenoxy)acetamide] | 80 ± 6 |  |  | IC50 [2, 7]: 66.4 ± 2.2 µM
C=C(CC)C(=O)c1ccc(OCC(=O)NC(CCC(=O)O)C(=O)O)c(Cl)c1Cl (centres unmarked) [Compound 22, 2-{2-[2,3-Dichloro-4-(2-methylene-butyryl)-phenoxy]acetylamino}pentanedioic acid] |  | nic |  | FP-3 IC50 [3, 8]: ni; FP-2 IC50 [1, 6]: ni

SMILES | IC50 [1, 9] [µM] | P. f. 3D7/W2, IC50 [2] | IC50 [3, 10] [µM] | also measured
C=C(CC)C(=O)c1ccc(OCC(=O)NCCCCCCNC(=O)CCCCC2SCC3NC(=O)NC32)c(Cl)c1Cl (centres unmarked) [Compound 24, 5-(2-Oxo-hexahydro-thieno[3,4-d]imidazol-4-yl)pentanoic acid (6-{2-[2,3-dichloro-4-(2-methylene-butyryl)-phenoxy]acetylamino}-hexyl)-amide] | 3 ± 1.1 |  | 11.9 ± 1.1 | IC50 [2, 7]: 9 ± 0.4 µM
CCCC(=O)c1ccc(OCC(=O)OC(C)(C)C)c(F)c1 [Compound 29, Tert-butyl-2-(4-butyryl-2-fluorophenoxy)acetate] | 80 ± 6 |  |  | 
CCC(C)C(=O)c1ccc(OCC(=O)O)c(Cl)c1Cl (centres unmarked) [Compound 25] | 531 | ni^c |  | FP-3 IC50 [3, 8]: ni
C=C(CC)C(=O)c1ccc(OCC(=O)N[C@@H](C)C(=O)OCc2ccccc2)c(Cl)c1Cl [Compound 10] | 178 ± 14 | ni^c | 56.7 ± 5.7 | 
C=C(CC)C(=O)c1ccc(OCC(=O)N2CCOCC2)c(Cl)c1Cl [Compound 17] | 305 ± 30 | nic | 479 ± 23 | 
C=C(CC)C(=O)c1ccc(Cl)cc1OCC(=O)OCC [Compound 2] | 110 ± 5 | ni^c | 381 ± 21 | 
C=C(CC)C(=O)c1ccc(OCC(=O)N2CCN(CC)CC2)c(Cl)c1Cl [Compound 19] |  |  |  | IC50 [2, 7]: 27.4 ± 4.1 µM; IC50 [3]: 557 ± 23 µM; IC50 [1]: 144 ± 11 µM
C=C(CC)C(=O)c1ccc(OCC(=O)NCCCCCC)c(Cl)c1Cl [Compound 21] | 182 ± 9 | nic | 123 ± 8 | 
C=C(CC)C(=O)c1ccc(OCC(=O)Nc2ccccc2)c(Cl)c1Cl [Compound 13] | 269 ± 21 | nic | 87.2 ± 6 | 
C=C(CC)C(=O)c1ccc(OCC(=O)NCC(=O)N[C@@H](Cc2ccccc2)C(N)=O)c(Cl)c1Cl [Compound 16] | 242 ± 19 | nic |  | FP-3 IC50 [3, 8]: ni
C=C(CC)C(=O)c1ccc(OCC(=O)NCCCCCC(=O)O)c(Cl)c1Cl [Compound 23, 6-{2-[2,3-Dichloro-4-(2-methylene-butyryl)-phenoxy]acetylamino}-hexanoic acid] | 57.1 ± 13 |  | 96.5 ± 0.6 | IC50 [2, 7]: 18.8 ± 0.9 µM; IC50 [5]: > 160 µM
C=C(CC)C(=O)c1ccc(OCC(=O)NC(C)(C)C)c(Cl)c1Cl [Compound 18] | 255 ± 4 | nic | 153 ± 16 | 
CC(C)C[C@H](NC(=O)[C@H]1O[C@@H]1C(=O)O)C(=O)NCCCCN=C(N)N [E-64, reference compound] | 0.015 ± 0.008 |  | 0.075 ± 0.02 | IC50 [2]: 5.3 ± 1.05 µM
C=C(CC)C(=O)c1ccc(OCC(=O)NCCCC)c(Cl)c1Cl [Compound 20] | 184 ± 17 | nic | 158 ± 17 | 
CCCC(=O)c1ccc(OCC(=O)NC(C(=O)OC)C(C)CC)c(F)c1 (centres unmarked) [Compound 32, Methyl 2-(2-(4-butyryl-2-fluorophenoxy)acetamido)-3-methylpentanoate] |  |  |  | FP-2 IC50 [1, 6]: ni
C=C(CC)C(=O)c1ccc(OCC(=O)NCc2ccccc2)c(Cl)c1Cl [Compound 11] | 333 ± 5 | ni^c | 158 ± 11 | 
